Counter-ions that a name gives are not always drawn.
Target: T1, hNET (Homo sapiens, UniProt P23975)
T1 construct: expressed in transfected cells
Assay: Norepinephrine (NE) uptake assay in MDCK-Net6 cells stably transfected with human hNET
Assay type: cell-based
Settings: MDCK-Net6, read-out: % Inhibition @ 1 μM (hNET)
Method: Cells were plated at 300,000/T75 flask and cells were split twice weekly. […] Cells were plated at 250,000 cells/T75 flask and split twice weekly.
On day 1, cells were plated at 3,000 cells/well in growth medium and maintained in a cell incubator (37° C., 5% CO2). On day 2, growth medium was replaced with 200 μl of assay buffer (25 mM HEPES; 120 mM NaCl; 5 mM KCl; 2.5 mM CaCl2; 1.2 mM MgSO4; 2 mg/ml glucose (pH 7.4, 37° C.)) containing 0.2 mg/ml ascorbic acid and 10 μM pargyline. Plates containing cells with 200 μl of assay buffer were equilibrated for 10 minutes at 37° C. prior to addition of compounds. A stock solution of desipramine was prepared in DMSO (10 mM) and delivered to triplicate wells containing cells for a final test concentration of 1 μM. Data from these wells were used to define non-specific NE uptake (minimum NE uptake). Test compounds were prepared in DMSO (10 mM) and diluted in assay buffer according to test range (1 to 10,000 nM). Twenty-five microliters of assay buffer (maximum NE uptake) or test compound were added directly to triplicate wells containing cells in 200 μl of assay buffer. The cells in assay buffer with test compounds were incubated for 20 minutes at 37° C. To initiate the NE uptake, [^3H]NE diluted in assay buffer (120 nM final assay concentration) was delivered in 25 μl aliquots to each well and the plates were incubated for 5 minutes (37° C.). The reaction was terminated by decanting the supernatant from the plate. The plates containing cells were washed twice with 200 μl assay buffer (37° C.) to remove free radioligand. The plates were then inverted, left to dry for 2 minutes, then reinverted and air-dried for an additional 10 minutes. The cells were lysed in 25 μl of 0.25 N NaOH solution (4° C.), placed on a shake table and vigorously shaken for 5 minutes. After cell lysis, 75 μl of scintillation cocktail was added to each well and the plates were sealed with film tape. The plates were returned to the shake table and vigorously shaken for a minimum of 10 minutes to ensure adequate partitioning of organic and aqueous solutions. The plates were counted in a Wallac Microbeta counter (PerkinElmer) to collect the raw cpm data.
For each experiment, a data stream of cpm values collected from the Wallac Microbeta counter was downloaded to a Microsoft Excel statistical application program. Calculations of EC50 values were made using the transformed-both-sides logistic dose response program written by Wyeth Biometrics Department.

T1 sequence (P23975 whole entry): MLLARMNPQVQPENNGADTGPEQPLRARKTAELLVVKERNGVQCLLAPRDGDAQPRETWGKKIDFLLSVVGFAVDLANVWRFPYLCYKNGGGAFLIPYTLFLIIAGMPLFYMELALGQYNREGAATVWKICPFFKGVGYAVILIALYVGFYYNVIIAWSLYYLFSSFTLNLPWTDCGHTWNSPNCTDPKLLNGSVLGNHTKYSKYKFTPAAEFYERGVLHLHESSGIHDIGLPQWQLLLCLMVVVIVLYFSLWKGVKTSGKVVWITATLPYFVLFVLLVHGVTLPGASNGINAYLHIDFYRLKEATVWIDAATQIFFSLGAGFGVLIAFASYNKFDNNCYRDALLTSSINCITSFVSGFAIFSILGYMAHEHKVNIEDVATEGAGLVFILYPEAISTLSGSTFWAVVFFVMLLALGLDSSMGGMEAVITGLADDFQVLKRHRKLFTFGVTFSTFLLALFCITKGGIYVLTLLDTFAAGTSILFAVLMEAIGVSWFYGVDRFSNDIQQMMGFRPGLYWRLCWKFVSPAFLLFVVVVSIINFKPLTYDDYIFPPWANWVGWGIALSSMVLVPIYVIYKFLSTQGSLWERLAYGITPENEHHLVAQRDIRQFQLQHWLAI

Structure (SMILES)	inhibition at 1 µM
CCNC[C@H](O)[C@@H](c1ccccc1)n1ccc2ccccc21 (racemic) [Example 5, (1RS,2SR)-3-(ethylamino)-1-(1H-indol-1-yl)-1-phenylpropan-2-ol hydrochloride]	58.1%
CNC[C@@H](O)[C@H](c1cccc(C(F)(F)F)c1)n1ccc2ccccc21 [Example 136, (1S,2R)-1-(1H-indol-1-yl)-3-(methylamino)-1-[3-(trifluoromethyl)phenyl]propan-2-ol hydrochloride]	97%
CNC[C@@H](O)[C@H](c1ccccc1)n1c(=O)n(C2CCC2)c2ccccc21 [Example 197, 1-cyclobutyl-3-[(1S,2R)-2-hydroxy-3-(methylamino)-1-phenylpropyl]-1,3-dihydro-2H-benzimidazol-2-one hydrochloride]	97%
CNC[C@@H](O)[C@H](c1cccc(F)c1)n1ccc2c(F)cccc21 [Example 184, (1S,2R)-1-(4-fluoro-1H-indol-1-yl)-1-(3-fluorophenyl)-3-(methylamino)propan-2-ol hydrochloride]	99.7%
CNC[C@@H](O)[C@H](c1ccccc1)n1ccc2cc(Cl)ccc21 [Example 152, (1S,2R)-1-(5-chloro-1H-indol-1-yl)-3-(methylamino)-1-phenylpropan-2-ol hydrochloride]	96.2%
CCn1c(=O)n([C@@H](c2cccc(F)c2)[C@H](O)CNC)c2ccccc21 [Example 199, 1-Ethyl-3-[1-(3-fluoro-phenyl)-2-hydroxy-3-methylamino-propyl]-1,3-dihydro-benzimidazol-2-one hydrochloride]	99.1%
CCn1c(=O)n([C@@H](c2ccccc2)[C@H](O)CNC)c2c(F)cccc21 [Example 207, 1-Ethyl-4-fluoro-3-[(1S,2R)-2-hydroxy-3-(methylamino)-1-phenylpropyl]-1,3-dihydro-2H-benzimidazol-2-one hydrochloride]	98.3%
CCCn1c(=O)n([C@@H](c2ccccc2)[C@H](O)CNC)c2cc(F)ccc21 [Example 198, 5-fluoro-3-[(1S,2R)-2-hydroxy-3-(methylamino)-1-phenylpropyl]-1-propyl-1,3-dihydro-2H-benzimidazol-2-one hydrochloride]	97.7%
CNC[C@@H](O)[C@H](c1cccc(F)c1)n1ccc2cc(F)ccc21 [Example 85, (1S,2R)-1-(5-fluoro-1H-indol-1-yl)-1-(3-fluorophenyl)-3-(methyl-amino)propan-2-ol hydrochloride]	97.4%

Same assay, conditions: test compound 1 μM; [3H]NE uptake, MDCK-Net6 cells; read-out: % Inhibition @ 1 μM (hNET)

Structure (SMILES)	inhibition at 1 µM
CNC[C@@H](O)[C@H](c1ccccc1)n1ccc2cccc(OC)c21 [Example 77, (1S,2R)-1-(7-methoxy-1H-indol-1-yl)-3-(methylamino)-1-phenylpropan-2-ol hydrochloride]	77.3%
CNC[C@@H](O)[C@H](c1ccc(F)cc1)n1cc(C)c2ccccc21 [Example 49, (1S,2R)-1-(4-fluorophenyl)-3-(methylamino)-1-(3-methyl-1H-indol-1-yl)propan-2-ol hydrochloride]	101%
CNC[C@@H](O)[C@H](c1ccccc1)n1ccc2cccc(C)c21 [Example 91, (1S,2R)-3-(methylamino)-1-(7-methyl-1H-indol-1-yl)-1-phenylpropan-2-ol hydrochloride]	90.8%
OC(CNC1CC1)C(c1cccc(F)c1)n1ccc2ccccc21 (stereo in doubt) [Example 111, (1S,2R)-3-(cyclopropylamino)-1-(3-fluorophenyl)-1-(1H-indol-1-yl)propan-2-ol hydrochloride]	42.7%
NC[C@H](O)[C@@H](c1ccccc1)n1ccc2cc(F)ccc21 (racemic) [Example 19, (1RS,2SR)-3-amino-1-(5-fluoro-1H-indol-1-yl)-1-phenylpropan-2-ol hydrochloride]	31.6%
CNC[C@@H](O)[C@H](c1ccccc1)n1ccc2ccc(OC)cc21 [Example 79, (1S,2R)-1-(6-methoxy-1H-indol-1-yl)-3-(methylamino)-1-phenyl propan-2-ol hydrochloride]	66%
CNC[C@@H](O)[C@H](c1ccccc1)n1ccc2cc(C)ccc21 [Example 95, (1S,2R)-3-(methylamino)-1-(5-methyl-1H-indol-1-yl)-1-phenylpropan-2-ol hydrochloride]	97.6%
CNC[C@@H](O)[C@H](c1ccccc1)n1ccc2c(OC)cccc21 [Example 78, (1S,2R)-1-(4-methoxy-1H-indol-1-yl)-3-(methylamino)-1-phenyl propan-2-ol hydrochloride]	70.9%
CNC[C@@H](O)[C@H](c1cccc(F)c1)N1C(=O)C(C)(C)c2cccc(F)c21 [Example 101, 7-fluoro-1-[(1S,2R)-1-(3-fluorophenyl)-2-hydroxy-3-(methylamino)propyl]-3,3-dimethyl-1,3-dihydro-2H-indol-2-one hydrochloride]	98.6%
NCC[C@@H](O)[C@H](c1cccc(Cl)c1)n1ccc2ccccc21 [Example 42, (1S,2R)-4-amino-1-(3-chlorophenyl)-1-(1H-indol-1-yl)butan-2-ol hydrochloride]	95.7%
CNC[C@@H](O)[C@H](c1ccccc1)N1C(=O)C(C)(C)c2cccc(F)c21 [Example 99, 7-fluoro-1-[(1S,2R)-2-hydroxy-3-(methylamino)-1-phenylpropyl]-3,3-dimethyl-1,3-dihydro-2H-indol-2-one hydrochloride]	98.1%

Further lines, results first:

inhibition at 1 µM	Structure (SMILES)
71.8%	CNC[C@@H](O)[C@H](c1ccccc1)n1ccc2ccc(Br)cc21 [Example 129, (1S,2R)-1-(6-bromo-1H-indol-1-yl)-3-(methylamino)-1-phenylpropan-2-ol hydrochloride]
98.9%	CNC[C@@H](O)[C@H](c1cccc(F)c1)n1cc(C(C)C)c2ccccc21 [Example 155, (1S,2R)-1-(3-fluorophenyl)-1-(3-isopropyl-1H-indol-1-yl)-3-(methylamino)propan-2-ol hydrochloride]
68.5%	NC[C@@H](O)[C@H](c1cccc(F)c1)n1ccc2ccccc21 [Example 134, (1S,2R)-3-amino-1-(3-fluorophenyl)-1-(1H-indol-1-yl)propan-2-ol hydrochloride]
92.9%	CNC[C@@H](O)[C@H](c1ccccc1)n1ccc2cc(Br)ccc21 [Example 126, (1S,2R)-1-(5-bromo-1H-indol-1-yl)-3-(methylamino)-1-phenylpropan-2-ol hydrochloride]
21.2%	CNC[C@@H](OC)[C@H](c1ccccc1)n1cc(C)c2cc(Cl)ccc21 [Example 121, [(2R,3S)-3-(5-chloro-3-methyl-1H-indol-1-yl)-2-methoxy-3-phenylpropyl]methylamine]
91%	CNC[C@@H](O)[C@H](c1ccccc1)N1C(=O)C(C)(C)c2ccc(F)cc21 [Example 195, 6-fluoro-1-[(1S,2R)-2-hydroxy-3-(methylamino)-1-phenylpropyl]-3,3-dimethyl-1,3-dihydro-2H-indol-2-one hydrochloride]
63.1%	CNC[C@@H](O)[C@H](c1cccc(F)c1)n1ccc2c(C#N)cccc21 [Example 131, 1-[(1S,2R)-1-(3-fluorophenyl)-2-hydroxy-3-(methylamino)propyl]-1H-indole-4-carbonitrile hydrochloride]
99.6%	CNC[C@@H](O)[C@H](c1cccc(F)c1)n1cc(-c2ccccc2C(F)(F)F)c2ccccc21 [Example 175, (1S,2R)-1-(3-fluorophenyl)-3-(methylamino)-1-{3-[2-(trifluoromethyl)phenyl]-1H-indol-1-yl}propan-2-ol hydrochloride]
99.6%	CNC[C@@H](O)[C@H](c1cc(F)cc(F)c1)N1CCc2ccccc21 [Example 158, (1S,2R)-1-(3,5-difluorophenyl)-1-(2,3-dihydro-1H-indol-1-yl)-3-(methylamino)propan-2-ol hydrochloride]
96.1%	CNC[C@@H](O)[C@H](c1ccccc1)n1cc(C(C)C)c2ccccc21 [Example 154, (1S,2R)-1-(3-isopropyl-1H-indol-1-yl)-3-(methylamino)-1-phenylpropan-2-ol hydrochloride]

Same assay, conditions: test compound 10 μM (stated in cell); [3H]NE uptake, MDCK-Net6 cells

inhibition at 10 µM	Structure (SMILES)
79.2%	Cc1cn([C@H](c2ccccc2)[C@@H](O)CNCC2CCCCC2)c2ccccc12 (racemic) [Example 9, (1RS,2SR)-3-[(cyclohexylmethyl)amino]-1-(3-methyl-1H-indol-1-yl)-1-phenylpropan-2-ol hydrochloride]

Reference: patent publication US20090093469A1, “Phenylaminopropanol Derivatives and Methods of Their Use” (WYETH, priority 2004, published 2009)
